The subject of test [1] is metallothioneins. The note with it: C. elegans nematode assay; cited from earlier work.
Test [2] deals with mouse test model. The note with it: Parkinson's disease; cited from earlier work.
The subject of test [3] is Caenorhabditis elegans. Kind of test: C. elegans nematode assay, overall rating over the Alzheimer and Parkinson tests. It counts as in vivo. As to conditions: for minimal effective concentration: Caenorhabditis elegans, read-out: Score; for minimal effective concentration / Score: rating from the effective concentration in both tests. The protocol:
The substances (1) to (41) and (101) to (108), prepared in the above synthesis examples or purchased, were tested for their potential suitability as an agent for treating Alzheimer's disease in a 96-well procedure in the initially mentioned screening assay using the nematode Caenorhabditis elegans (Pretsch et al., see above) in a standardized β-amyloid test system using the transgenic C. elegans strain CL2659. For this purpose, stage L3 worm larvae were used at a density of 10-20 worms per well. The expression of β-amyloid in the muscle cells was induced by increasing the temperature, and the associated paralysis was recorded at regular intervals until the end of the test after 48 hours.
(§1) For this purpose, the above substances were tested at concentrations of 1 mg/ml, 100 μg/ml, and 10 μg/ml in comparison with quercetin as a […] control.
(§2) The same substances as above were tested in a 96-well procedure in the initially mentioned screening assay using the nematode Caenorhabditis elegans (Pretsch et al., see above) in a standardized α-synuclein test system using the transgenic C. elegans strain NL5901 for their potential suitability as an agent for treating Parkinson's disease. This worm strain expresses human α-synuclein bound to green fluorescent protein (GFP) in all muscle cells. GFP labeling allows a direct detection of expressed protein levels using a multiplate reader for 24 to 48 hours.
(§3) For this purpose, the substances were again tested at concentrations of 1 mg/ml, 100 μg/ml, and 10 μg/ml, but this time in comparison to the initially mentioned Parkinson therapeutic agent levodopa as a control.

Test [4] deals with transgenic C. elegans strain NL5901. Kind of test: α-synuclein test system: reduction of α-synuclein-GFP expression in transgenic C. elegans strain NL5901 (Parkinson testing). The note with it: NL5901, GFP readout 24 to 48 hours, tested at 1 mg/ml, 100 μg/ml, 10 μg/ml, — = no effect even at 1 mg/ml; for minimal effective concentration: Caenorhabditis elegans, read-out: Parkinson: concentration range in which a reduction in α-synuclein expression was detectable. It counts as in vivo, Caenorhabditis elegans. On the procedure: as §2, §3

The subject of test [5] is transgenic C. elegans strain CL2659. Kind of test: β-amyloid test system: delay of paralysis in transgenic C. elegans strain CL2659 (Alzheimer testing). It counts as in vivo, Caenorhabditis elegans. As to conditions: CL2659 stage L3 larvae, 48 hours, tested at 1 mg/ml, 100 μg/ml, 10 μg/ml, — = no effect even at 1 mg/ml; for minimal effective concentration: Caenorhabditis elegans, read-out: Alzheimer: concentration range in which a delay in paralysis was observed. On the procedure:
For this purpose, stage L3 worm larvae were used at a density of 10-20 worms per well. The expression of β-amyloid in the muscle cells was induced by increasing the temperature, and the associated paralysis was recorded at regular intervals until the end of the test after 48 hours.
as §1

On to `Cc1cc(O)c2c(c1)C(=O)c1cc(O)cc(O)c1C2=O` [emodin, 1,3,8-trihydroxy-6-methylanthracene-9,10-dione], for which, in test [1], the “body's own biosynthesis of metallothioneins” value is “prolongation of the body's own biosynthesis of metallothioneins”.

For the molecule `CC(C)(S)[C@@H](N)C(=O)O` [D-penicillamine, 2-amino-3-mercapto-3-methyl butanoic acid], in test [2], the “neuroprotective effect / neurotoxicity” value is recorded as “did not show any neuroprotective effect”.

Turning to `CC12CC3CC(C)(C1)CC(NC(=O)CC(=O)N1CCN(CC(=O)N4CCOCC4)CC1)(C3)C2` [(41), N-(3,5-dimethyladamantan-1-yl)-N′-4-(2-morpholino-2-oxoethyl)piperazine malonic acid diamide], the results for the minimal effective concentration in test [3], in test [4] and in test [5] were 10 to 100 µg/mL, more than 10 µg/mL and more than 10 µg/mL, respectively. Further, the “concentration from which the compound was effective” value in test [3] (both tests) is more than 10 µg/mL.

Regarding `CCN(CC)C(=S)S` [diethyl dithiocarbamate, diethyldithiocarbamate], the “neuroprotective effect / neurotoxicity” value in test [2] was “higher neurotoxicity”.

For the molecule `CN(C)CCCNC(=O)CC(=O)OC12CC3CC(CC(C3)C1)C2` [(27), malonic acid adamantan-1-yl ester N-(3-dimethylaminopropyl)amide], the results for the minimal effective concentration in test [3], in test [4] and in test [5] were 10 to 100 µg/mL, more than 10 µg/mL and more than 10 µg/mL, respectively.

As for `COC(=O)CC(=O)NC12CC3CC(CC(C3)C1)C2` [(16), malonic acid methyl ester N-(adamantan-1-yl)amide], the minimal effective concentration in test [3] was 10 to 100 µg/mL; in test [4], more than 10 µg/mL; in test [5] it was more than 10 µg/mL.

Consider `NCCCC(=O)N1CCN(C(=O)CC(=O)NC23CC4CC(CC(C4)C2)C3)CC1` [(21), N-adamantan-1-yl-N′-(4-(4-aminobutyryl)piperazine)malonic acid diamide], for which the minimal effective concentration was 10 to 100 µg/mL in test [3], more than 10 µg/mL in test [4] and more than 10 µg/mL in test [5].

Regarding `CC12CC3CC(C)(C1)CC(NC(=O)CC(=O)O)(C3)C2` [(32), malonic acid N-(3,5-dimethyl)adamantan-1-yl amide], the minimal effective concentration in test [3] was 10 to 100 µg/mL; in test [4], more than 10 µg/mL; in test [5] it was more than 10 µg/mL.

On to `NC(=O)CC(N)=O` [(2), malonic acid diamide], for which the figures for the minimal effective concentration in test [3], in test [4] and in test [5] were 10 to 100 µg/mL, more than 10 µg/mL and more than 10 µg/mL, respectively.

As for `COc1ccccc1N1CCN(C(=O)CC(=O)NC23CC4CC(C)(CC(C)(C4)C2)C3)CC1` [(38), N-(3,5-dimethyladamantan-1-yl)-N′-4-(2-methoxyphenyl)piperazine malonic acid diamide], the Score result in test [3] is “++ (a compound that is already effective at a concentration >10 μg/ml and therefore rated “++”)”. For the same molecule, in test [4], the “Parkinson: concentration range in which a reduction in α-synuclein expression was detectable” value is more than 100 µg/mL. For the same molecule, the “Alzheimer: concentration range in which a delay in paralysis was observed” value in test [5] is more than 100 µg/mL.

With `NC1CCN(C(=O)CC(=O)OC23CC4CC(CC(C4)C2)C3)CC1` [(14), malonic acid adamantan-1-yl ester 4-aminopiperidine amide], the minimal effective concentration in test [3] was 10 to 100 µg/mL; in test [4], more than 10 µg/mL; in test [5] it was more than 10 µg/mL.

With `NCCCC(=O)NC1CCN(C(=O)CC(=O)OC23CC4CC(CC(C4)C2)C3)CC1` [(15), malonic acid adamantan-1-yl ester (4-(4-aminobutyryl)amino)piperidine amide], the figures for the minimal effective concentration in test [3], in test [4] and in test [5] were 10 to 100 µg/mL, more than 10 µg/mL and more than 10 µg/mL, respectively.

On to `COC(=O)CC(N)=O` [(6), malonic acid methyl ester amide], for which, in test [3], the Score entry is “+ (a compound that is only effective above 100 μg/ml and therefore rated “+”)”. Besides, the “Parkinson: concentration range in which a reduction in α-synuclein expression was detectable” value in test [4] is more than 100 µg/mL. Besides, the “Alzheimer: concentration range in which a delay in paralysis was observed” value in test [5] was more than 100 µg/mL.

As to `O=C(O)CC(=O)NC12CC3CC(CC(C3)C1)C2` [(17), N-(adamantan-1-yl)malonic acid amide], the minimal effective concentration in test [3] is 10 to 100 µg/mL; in test [4], more than 10 µg/mL; in test [5], more than 10 µg/mL.

As to `Oc1c(I)cc(Cl)c2cccnc12` [clioquinol, 5-chloro-7-iodoquinolin-8-ol], the “body's own biosynthesis of metallothioneins” value in test [1] was “prolongation of the body's own biosynthesis of metallothioneins”.

Regarding `NCCCNC(=O)CC(=O)O` [(7), N-(3-aminopropyl)malonic acid amide], the minimal effective concentration in test [3], in test [4] and in test [5] was more than 100 µg/mL in each case.

As to `COC(=O)CC(=O)OC` [(4), malonic acid dimethyl ester], the minimal effective concentration in test [3] is 10 to 100 µg/mL; in test [4], more than 10 µg/mL; in test [5], more than 10 µg/mL.

As to `CC12CC3CC(C)(C1)CC(NC(=O)CC(=O)NCCCN)(C3)C2` [(33), N-(3,5-dimethyladamantan-1-yl)-N′-(3-aminopropyl)malonic acid diamide], the minimal effective concentration in test [3] is 10 to 100 µg/mL; in test [4], more than 10 µg/mL; in test [5], more than 10 µg/mL.

As to `O=C(CC(=O)OC12CC3CC(CC(C3)C1)C2)NCCCN1CCOCC1` [(28), malonic acid adamantan-1-yl ester N-(3-morpholinopropyl)amide], the minimal effective concentration in test [3] is 10 to 100 µg/mL; in test [4], more than 10 µg/mL; in test [5], more than 10 µg/mL.

Turning to `NCCCNC(=O)CC(=O)N1CCC2CCCCC2C1` (centres unmarked) [(25), N-(3-aminopropyl)-N′-decahydroisoquinoline malonic acid diamide], the minimal effective concentration was 10 to 100 µg/mL in test [3], more than 10 µg/mL in test [4] and more than 10 µg/mL in test [5].

The values are drawn from US20260174721A1, “AGENT FOR RESTORING METAL HOMEOSTASIS” (Oxford Antibiotic Group GmbH, priority 2022, published 2026).
